Values quoted from earlier work as cited in patent US20110104273A1, “GASTRIC RETENTIVE PHARMACEUTICAL COMPOSITIONS FOR IMMEDIATE AND EXTENDED RELEASE OF PHENYLEPHRINE” (DEPOMED, INC., priority 2009, published 2011).
Where a name gives a salt, the structure may show the parent alone. Read-outs that look alike come from different tables or passages of the source.

Legend:
[1] = not given; remark: listed apart in the source

Row | Structure (SMILES) | solubility in water | threshold dosage for any effects on the cardiovascular system (cardiovascular system; administered orally in man) | effects on the cardiovascular system (cardiovascular system; oral over-the-counter (OTC) doses) | solubility in water (hydrochloride) | absorption from the gut ([1]; oral) | bioavailability ([1]; oral) | systemic bioavailability ([1]; oral administration) | fraction of oral dose excreted unchanged in the urine ([1]; oral dose)
1 | CNC[C@H](O)c1cccc(O)c1 [Phenylephrine HCl] | freely soluble |  |  |  |  |  |  | 
2 | CNC[C@H](O)c1cccc(O)c1 [Phenylephrine, (R)-3-[-1-hydroxy-2-(methylamino)ethyl]phenol alcohol hydrochloride] |  | about 50 mg | minimal effects | highly soluble | well absorbed | up to 38% | around 40% | about 3%
